Test results taken from US7361735B2, “LITAF binding site peptides and methods of using the same” (Trustees of Boston University, priority 2003, dated 2008).

Experiments:
[1] = tested on: mtTNFP2 (−550 to −487 plus TATA Box); assay: Luciferase reporter assay, short TNF-α promoter fragment with LITAF binding site, THP-1; format: cell-based, human; conditions: 1 μg/ml peptide via Chariot or 100 ng/ml LPS, in comparison with the HA control, FIG. 6b
Experimental: (§1) FIGS. 6a and 6b are graphical representations of the transcriptional activity of a series of deletion constructs of TNF-α promoter DNA. FIG. 6a depicts the activity measured due to either the promoter wtTNFβ (−991 to 1) or mtTNFβ1 (−991 to 1Δ−515 to −511). pGL3-basic transfected cell as unstimulated control was used. After transfection of DNAs for 3 hrs, the cells were washed with PBS twice, and stimulated with 100 ng/ml LPS (E. coli) or transfected with Chariot/peptide complex of 1 μg/ml of either peptide A, B, C, or HA. Triplicate assays were performed. Values are normalized by β-gal production and graphed. FIG. 6b depicts the activity measured due to the promoter mtTNFβ2 (−550 to −487 plus TATA box) or mtTNFβ3 (−550 to −487Δ−515 to −511 plus TATA box). LPS or peptides as stimuli and controls were used at the same condition as described above.
(§2) The following series of hTNF-α promoter DNA fragments were subcloned (FIG. 1b) into the pGL3-Basic vector, which has a promoterless and enhancerless luciferase reporter gene, available from Pharmacia: 1. wtTNFP (−991 to 1) was generated by PCR with primer pairs: 5′-[…]-3′ (SEQ ID NO: 20′) and 5′-[…]-3′(SEQ ID NO: 21′). 2. mtTNFP1 (−991 to 1Δ−515 to −511). The first in-frame mutant hTNF-α promoter was generated by PCR with primer pairs, 5′-[…]-3′(SEQ ID NO: 20) and 5′-[…] (SEQ ID NO: 22). The second mutant DNA was generated by PCR with primer pairs, 5′-[…]-3′ (SEQ ID NO: 23) and 5′-[…]-3′ (SEQ ID NO: 21). Both first and second DNA fragments above were purified and diluted as template to 1 ng/reaction and finally amplified by PCR with primer pairs, 5′-[…]-3′ (SEQ ID NO: 20) and 5′-[…]-3′ (SEQ ID NO: 21). […]
(§3) THP-1 cells (5×10^6/well) were induced to maturation by addition of […] (Sigma) and incubated at 37° C., 5% CO2 for 20 hrs, washed with PBS twice, co-transfected with 1 μg DNAs by using Fugene 6 (Roche Molecular Biochemicals) for 3 hrs, washed with PBS, then individually transfected with Chariot/peptide complex of 1 μg/ml peptide A, B, C or HA or stimulated with 100 ng/ml LPS (E. coli) for 3 hrs, washed with PBS, incubated at 37° C., 5% CO2, overnight. […] Luciferase activity in the lysates was measured using a commercial kit (Luciferase Reporter Assay System, Promega) and normalized by β-gal assay in the same lysates as described (McClane et al., Hum. Gene Ther. 10:739-746, 1997).
(§4) To determine whether the short sequence CTCCC (−515 to −511) in the hTNF-a promoter is responsible for hLITAF binding activity, a series of hTNF-α promoter/reporter constructs were cloned (see FIG. 1b) and individually transiently transfected into THP-1 cells. […] TNF-α promoter activity was subsequently analyzed using the luciferase assay. […]

wtTNFP (−991 to 1) = assay: Luciferase reporter assay, wild type full-length TNF-α promoter, THP-1; format: cell-based, human; conditions: 1 μg/ml peptide via Chariot or 100 ng/ml LPS, normalized by β-gal, peptide B compared with HA-stimulated cells
Experimental: as §1, §2, §3, §4

THP-1 cells = assay: ELISA of hTNF-α after Chariot delivery of peptide; format: cell-based, human; conditions: PMA-matured THP-1; Chariot/peptide 1, 10, 100 ng/ml or 1 μg/ml; 24 hours; ELISA of supernatant
Experimental: FIG. 5 is a graphical representation of the production of TNF-α in THP-1 cells after transfection of peptide A, B, C, or HA with Chariot as described herein. The concentration of active of TNF-α was induced by various concentrations of peptide and measured by duplicate ELISA tests at the same condition and graphed.
THP-1 cells were induced to maturation by addition of […] (Sigma) and incubated at 37° C., 5% CO2 for 20 hrs, then washed with PBS twice, and stimulated (delivered) with Chariot/peptide complex of various concentrations of either peptide A or B or C or HA in a 96-well plate at 2×10^4 cells/well as indicated in the text. After 24 hrs of incubation at 37° C., 5% CO2, culture supernatants were harvested, centrifuged at 1,500×g to remove cell debris, then TNF-α was measured by ELISA (ABRAXIS, Hatboro, Pa.) and quantified on a Model 680 Microplate Reader (BioRad).
Therefore, peptides A, B, and C, were synthesized based on the amino acid sequence of hLITAF. […] After pretreatment with PMA, peptides A, B, C, or HA were introduced into THP-1 cells using Chariot, as described herein, in concentrations of 1, 10, 100 ng/ml or 1 μg/ml. After 24 hours, culture supernatants were harvested and TNF-α was quantified by ELISA. […] In contrast, peptide B increased TNF-α secretion by as much as 2.4 fold over unstimulated levels.

[2] = tested on: mtTNFP1 (−991 to 1Δ−515 to −511); assay: Luciferase reporter assay, full-length TNF-α promoter lacking CTCCC, THP-1; format: cell-based, human; conditions: 1 μg/ml peptide via Chariot or 100 ng/ml LPS, FIG. 6a
Experimental: as §1, §2, §3, §4

[3] = tested on: mtTNFβ1, promoter from −991 to 1 lacking the LITAF binding site; assay: Luciferase reporter assay, mutant TNF-α promoter lacking LITAF binding site, WTK-1; format: cell-based; conditions: WTK-1 cells; LPS stimulation
Excerpt: (§5) FIG. 10 is a graphical representation of the analysis of LITAF function in luciferase reporter constructs. The series of TNF-α promoter DNA fragments were subcloned into the pGL3 basic vector (Pharmacia), a promoterless and enhancerless luciferase reporter gene. One construct, named wtTNFβ, contained TNF-α promoter from −991 to 1. Another one, mtTNFβ1, was a mutant inserted with the promoter from −991 to 1, but lacking the LITAF binding site. WTK-1 cells (grown to 85% confluence) in a 6-well plate at 1.2×10^5 cells/well were co-transfected with 1 μg DNAs including pCMV-LITAF recombinant vector, pVMVβ-gal and pGL3 basic as control by Fugene 6 (Roche Molecular Biochemicals) for 3 hrs, washed with PBS twice, then individually stimulated with LPS or Chariot/peptide complex of 100 ng/ml peptide B (peptide fragment of LITAF representing aa 152-228) or HA as control for 3 hrs, washed with PBS, incubated at 37° C., 5% CO2, o/n. The β-galactosidase gene was included in all transfections. The cells were harvested and lysed approximately 12 hrs after transfection. The promoter activity from each lysate sample was measured using the luciferase reporter assay system (Promega) and normalized to β-gal expression in the same sample, as described in the methods section below.
(§6) The activation of TNF-α gene expression by LITAF was investigated. […]

[4] = tested on: COS-7 cells (wild-type p53); assay: Northern blot of LITAF transcript after LPS, COS-7; format: cell-based; conditions: LPS 500 ng/ml for 4 hrs
Experimental: (§7) FIGS. 7a and 7b show the analysis of the accumulation of p53 and induction of LITAF mRNA. […] 60 μg of crude cell lysate was loaded per lane and separated on an 8% SDS-PAGE, which were then transferred to Immobilon-P. The protein blots were probed individually with monoclonal antibodies specific for p53 (DO-1, Santa cruz) or with goat polyclonal antibodies for actin (C-11, Santa cruz). p53 proteins were expressed well in lanes 2 through 4. […] Cells were incubated with 100 or 500 ng/ml of LPS for 4 or 24 hrs. Total cellular RNA was purified by using the Oligotex mRNA Kit (Qiagen). mRNA was size-fractionated on a denaturing formaldehyde-agarose gel (1.1%) and transferred onto a Hybond-N^+ membrane (Amersham). These filters were hybridized with an γ-^32P ATP-labeled DNA probe and then autoradiographed with BIOMAX MR film (Kodak).
(§8) The accumulation of p53 after LPS stimulation was investigated.

[5] = tested on: WTK-1 cells (p53-deficient cell line); assay: Northern blot of LITAF transcript after LPS, WTK-1; format: cell-based; conditions: WTK-1 p53-deficient cells
Experimental: as §7, §8

[6] = tested on: COS-7 cells (wild-type p53); assay: Western blot of p53 accumulation after LPS; format: cell-based; conditions: LPS 500 ng/ml for 4 hrs
Experimental: as §7, §8

COS-7 cells = assay: TUNEL analysis of DNA fragmentation of apoptotic cells; format: cell-based
Experimental: FIG. 8 depicts the TUNEL analysis of DNA fragmentation of apoptotic COS-7 cells in response to LPS. After LPS stimulation, cells were fixed in 4% methanol-free formaldehyde solution for 30 min at room temperature, then permeated with 0.1% Triton X-100 for 2 min at 4° C. After washing with PBS, the samples were stained according to the manufacturer's recommended protocol for TUNEL (Promega.). The fragmentation of apoptotic COS-7 cell nuclei was analyzed by fluorescence microscopy (panels g, f, or h). The corresponding field was also observed by standard phase contrast microscopy (panels a, b, or c).
Since the induction of LITAF follows the accumulation of p53 (FIG. 7a), the DNA fragmentation of apoptotic COS-7 cells after 4 hrs with LPS stimulation was investigated.

[7] = tested on: mtTNFP3 (−550 to −487Δ−515 to −511 plus TATA Box); assay: Luciferase reporter assay, short TNF-α promoter fragment lacking LITAF binding site, THP-1; format: cell-based, human; conditions: 100 ng/ml LPS, FIG. 6b
Experimental: as §1, with “above. […]” for “above.”
as §4

[8] = tested on: wtTNFβ, TNF-α promoter from −991 to 1; assay: Luciferase reporter assay, wild-type TNF-α promoter, WTK-1; format: cell-based; conditions: WTK-1 cells; normalized to β-gal; LITAF overexpressed alone without LPS stimulation
Excerpt: as §5, §6

Substance	expression of luciferase, shorter reporter plasmid containing the LITAF binding site [1]	hTNF-α promoter activity (luciferase expression), wild type promoter (wtTNFP (−991 to 1))	TNF-α secretion over unstimulated levels (THP-1 cells)	promoter activity (luciferase), mutant TNF-α promoter lacking the CTCCC motif [2]	TNF-α promoter activity (luciferase), mutant promoter/reporter plasmid [3]	LITAF transcript [4]	LITAF transcription [5]	inducible p53 protein [6]	apoptosis (TUNEL) (COS-7 cells; 100 ng/ml of LPS)	TUNEL-positive (apoptotic) cells (COS-7 cells; 500 ng/ml LPS for at least 4 hrs)	activation of shorter reporter plasmid lacking the LITAF binding site [7]	TNF-α promoter activity (luciferase), wild-type promoter/reporter plasmid [8]
LSSSFTPGGGSALVVS [peptide C]	unable to activate	did not result in any significant increase	did not induce any significant TNF-α secretion	no appreciable induction								
Lipopolysaccharide [LPS]	strongly dependent on the presence of the LITAF binding site	similarly activated		similarly activated	similarly activated	detected	did not induce LITAF transcription	detected	did not induce apoptosis	significantly increased	activation not observed	similarly activated
SQTWREPGAAGSPFHL [peptide B]	2.3 fold	~2 fold	≤ 2.4 fold	no appreciable induction								
SYYTQPAPIPNNNPIT VQTVY (SYYTQPAPIPNNNPITVQTVY) [peptide A]	unable to activate	did not result in any significant increase	did not induce any significant TNF-α secretion	no appreciable induction								
YPYDVPDYASL [HA, reference compound]			did not induce any significant TNF-α secretion									
